Consider 18 compounds from patent US20140107109A1, “AMINO-DIHYDROTHIAZINE AND AMINO-DIOXIDO DIHYDROTHIAZINE COMPOUNDS AS BETA-SECRETASE ANTAGONISTS AND METHODS OF USE” (Amgen Inc., priority 2012, published 2014).

Read-outs that look alike come from different tables or passages of the source. Bounds are passed on as bounds.

The target in experiment [1] is Beta Secretase enzyme (BACE1) (Homo sapiens, UniProt P56817). As to the kind of experiment: In vitro enzymatic BACE FRET assay. The experiment is classed as biochemical. As to conditions: read-out: BACE1 FRET assay IC50. Here is the method: In Vitro Enzymatic BACE FRET (Fluorescence Resonance Energy Transfer) Assay (Enzyme Assay Data in the Example Tables I and II)
The assay buffer used in this screen is 0.05 M acetate, pH 4.2, 10% DMSO final, 100 uM genapol (which is a nonionic detergent, below its Critical Micelle Concentration). […] This assay is effectively started by the addition of FRET substrate (50 nM) and the combination is incubated for one hour. The FRET assay is terminated with by addition of Tris buffer, which raises the pH to neutrality, and the fluorescence is determined. The FRET substrate is a peptide with commercially available fluorophore and quencher, on opposite sides of the BACE cleavage site. Proteolytic cleavage of the FRET substrate releases quenching of fluorescence (excitation […] and […]).

For experiment [2], the system named is Aβ40 in conditioned medium of cells stably expressing Amyloid Precursor Protein (APP). Put plainly: In vitro BACE cell-based assay (HEK cell assay), Aβ40 sandwich ELISA. Particulars: Homo sapiens, HEK293. Here is the method: In Vitro BACE Cell-Based Assay
The cell-based assay measures inhibition or reduction of Aβ40 in conditioned medium of test compound treated cells expressing amyloid precursor protein.
Cells stably expressing Amyloid Precursor Protein (APP) were plated at a density of 40K cells/well in 96 well plates (Costar). The cells were cultivated for 24 hours at 37C. and 5% CO2 in DMEM supplemented with 10% FBS. The test compounds were then added to cells in 10-point dose response concentrations with the starting concentration being either 100 μM or 10 μM. The compounds were diluted from stock solutions in DMSO and the final DMSO concentration of the test compounds on cells was 0.1%. After 24 h of incubation with the test compounds the supernatant conditioned media was collected and the Aβ 40 levels were determined using a sandwich ELISA. The IC50 of the compound was calculated from the percent of control or percent inhibition of Aβ 40 as a function of the concentration of the test compound.
The sandwich ELISA to detect Aβ 40 was performed in 96 well microtiter plates, which were pre-treated with goat anti-rabbit IgG (Pierce). The capture and detecting antibody pair that were used to detect Aβ 40 from cell supernatants were affinity purified pAb40 (Biosource) and biotinylated 6E10 (Signet Labs Inc.), respectively. The optimal concentration for the pAb40 antibody was 3 μg/ml in Superblock/TBS (Pierce) that was supplemented with 0.05% Tween 20 (Sigma). Optimal concentration for the detection antibody 6E10-biotinylated was 0.5 μg/ml in Superblock/TBS (Pierce) that had been supplemented with 2% normal goat serum and 2% normal mouse serum.
Cellular supernatants were incubated with the capture antibody for 3 h at 4° C., followed by 3 wash steps in TBS-tween (0.05%). The detecting antibody incubation was for 2 h at 4° C., again followed by the wash steps as described previously. The final readout of the ELISA is Time-Resolved Fluorescence (counts per minute) using Delfia reagents Streptavidin-Europium and Enhancement solutions (Perkin Elmer) and the Victor 2 multilabel counter (Perkin Elmer).

The target of a further experiment is T1, Cathepsin D (Cat D) (Homo sapiens, UniProt P07339).
T1 construct: Recombinant Cat D was expressed in CHO cells; made in house; host or cells: CHO cells
As to the kind of experiment: In vitro enzymatic Cathepsin D (Cat D) FRET assay. The experiment is classed as biochemical. As to conditions: read-out: CatD IC50. Here is the method:
In Vitro Enzymatic Cathepsin D (Cat D) FRET (Fluorescence Resonance Energy Transfer) Assay Recombinant Cat D was expressed in CHO cells. […] The Cat D enzyme (9 nM) is pre-incubated for one hour with inhibitors, typically in about 1 uL of DMSO according to a serial dilution, is added thereto. […] The FRET assay is terminated with by addition of Tris buffer, which raises the pH to neutrality, and the fluorescence is determined. The FRET substrate is a peptide with commercially available fluorophore and quencher, on opposite sides of the BACE cleavage site. The Cat D substrate peptide sequence is based on sequence #1 of Table 1 from Gulnik et al. […] Alternatively, a Cat D assay may also be run according to the procedure described in the article, Characterization of new fluorgenic substrates for the rapid and sensitive assay of cathepsin E and cathepsin D, J. Biochem., 125:1137, 1999. In addition, the cathepsin D and cathepsin E assays are described in PCT publication WO2011069934. This WIPO publication describes BACE inhibitor compounds having an amide linker connecting two aromatic groups with extremely poor cathepsin D and/or cathepsin E inhibitory activity (see Table 2). Where available, the in-vitro Cat D FRET assay data for each of the Examples, conducted by the first procedure, is provided.

Chain of Beta Secretase enzyme (BACE1) (P56817 46-501): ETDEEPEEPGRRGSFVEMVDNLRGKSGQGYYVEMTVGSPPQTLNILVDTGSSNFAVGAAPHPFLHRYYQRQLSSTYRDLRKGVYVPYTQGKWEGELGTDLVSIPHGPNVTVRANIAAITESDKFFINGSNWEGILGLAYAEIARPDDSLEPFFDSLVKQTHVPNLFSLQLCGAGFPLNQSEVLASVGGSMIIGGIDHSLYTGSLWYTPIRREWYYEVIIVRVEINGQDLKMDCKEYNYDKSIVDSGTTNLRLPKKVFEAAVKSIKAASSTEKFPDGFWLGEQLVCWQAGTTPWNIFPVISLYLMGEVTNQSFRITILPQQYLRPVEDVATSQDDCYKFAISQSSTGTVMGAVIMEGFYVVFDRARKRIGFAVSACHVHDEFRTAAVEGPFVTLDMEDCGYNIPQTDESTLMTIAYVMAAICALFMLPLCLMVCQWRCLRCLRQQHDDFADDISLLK
T1 sequence (P07339 65-412, species assumed): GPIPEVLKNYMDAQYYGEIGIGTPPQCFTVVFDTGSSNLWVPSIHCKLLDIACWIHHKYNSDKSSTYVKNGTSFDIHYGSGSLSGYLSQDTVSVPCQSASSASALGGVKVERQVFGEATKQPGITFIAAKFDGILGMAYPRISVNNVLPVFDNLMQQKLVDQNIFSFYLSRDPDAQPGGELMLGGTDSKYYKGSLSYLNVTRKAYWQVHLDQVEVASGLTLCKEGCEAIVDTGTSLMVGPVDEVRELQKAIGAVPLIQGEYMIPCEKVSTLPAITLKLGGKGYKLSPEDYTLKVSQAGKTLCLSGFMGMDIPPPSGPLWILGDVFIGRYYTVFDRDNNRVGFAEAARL

Regarding `COc1cnc2c(Nc3ccc(F)c([C@]4(C)CS(=O)(=O)[C@@](C)(F)C(N)=N4)c3)nccc2n1` [Example 59, N-(3-((3R,6R)-5-amino-6-fluoro-3,6-dimethyl-1,1-dioxido-3,6-dihydro-2H-1,4-thiazin-3-yl)-4-fluorophenyl)-2-methoxypyrido[3,4-b]pyrazin-5-amine], the IC50 in experiment [1] turned out to be 0.0033 µM; in experiment [2] (Aβ40, 24 h incubation), 0.178 µM; at Cathepsin D (Cat D) it was 388 µM.

For `Cc1nc(C(=O)Nc2ccc(F)c([C@]3(C)CS(=O)(=O)C(C)(C)C(N)=N3)c2)cs1` [Example 27, N-(3-((3R)-5-amino-3,6,6-trimethyl-1,1-dioxido-3,6-dihydro-2H-1,4-thiazin-3-yl)-4-fluorophenyl)-2-methyl-1,3-thiazole-4-carboxamide], the half-inhibitory concentration (IC50) in experiment [1] was 0.051 µM; in experiment [2] (Aβ40, 24 h incubation) it was 0.0609 µM; on Cathepsin D (Cat D) it was more than 400 µM.

As to `CC1(C)C(N)=N[C@](C)(c2cc(Nc3ncnc4cc(C#N)cnc34)ccc2F)C(F)S1(=O)=O` (stereo partly drawn) [Example 229, 4-((3-((3R)-5-amino-2-fluoro-3,6,6-trimethyl-1,1-dioxido-3,6-dihydro-2H-1,4-thiazin-3-yl)-4-fluorophenyl)amino)pyrido[3,2-d]pyrimidine-7-carbonitrile], the IC50 in experiment [1] (average IC50, enzyme assay) was 0.00101 µM; at Cathepsin D (Cat D), 80.7 µM.

As for `CC1(C)C(N)=N[C@@]2(c3cc(Nc4nccc5cc(Cl)cnc45)ccc3F)C[C@H]2S1(=O)=O` [Example 183, (1R,6R)-4-amino-6-(5-((3-chloro-1,7-naphthyridin-8-yl)amino)-2-fluorophenyl)-3,3-dimethyl-2-thia-5-azabicyclo[4.1.0]hept-4-ene 2,2-dioxide], the IC50 in experiment [2] (average IC50, cell assay) is 4.74 µM; on Cathepsin D (Cat D), 87.9 µM.

With `CC1(C)C(N)=N[C@](C)(c2cc(NC(=O)c3ccc(Cl)cn3)ccc2F)CS1(=O)=O` [Example 19, N-(3-((3R)-5-amino-3,6,6-trimethyl-1,1-dioxido-3,6-dihydro-2H-1,4-thiazin-3-yl)-4-fluorophenyl)-5-chloro-2-pyridinecarboxamide], the IC50 was found to be 0.0014 µM in experiment [2] (Aβ40, 24 h incubation) and 240 µM at Cathepsin D (Cat D).

With `NC1=N[C@@](CF)(c2cc(Nc3nccc4cc(Cl)cnc34)ccc2F)CS(=O)(=O)C12CCC2` [Example 244, N-(3-((7R)-9-amino-7-(fluoromethyl)-5,5-dioxido-5-thia-8-azaspiro[3.5]non-8-en-7-yl)-4-fluorophenyl)-3-chloro-1,7-naphthyridin-8-amine], the IC50 in experiment [1] (average IC50, enzyme assay) turned out to be 3.53 µM; on Cathepsin D (Cat D) it was 528 µM.

On to `COc1cc(C)ccc1Oc1ccc(F)c([C@]2(C)CS(=O)(=O)C(C)(C)C(N)=N2)c1` [Example 97, (R)-5-amino-3-(2-fluoro-5-(2-methoxy-4-methylphenoxy)phenyl)-3,6,6-trimethyl-3,6-dihydro-2H-1,4-thiazine 1,1-dioxide], for which the half-inhibitory concentration (IC50) in experiment [2] (Aβ40, 24 h incubation) was determined as 6.86 µM; at Cathepsin D (Cat D) it was 182 µM.

Consider `COc1cnc(C(=O)Nc2ccc(F)c([C@]3(C)CS(=O)(=O)C(C)(C)C(N)=N3)c2)cn1` [Example 17, N-(3-((3R)-5-amino-3,6,6-trimethyl-1,1-dioxido-3,6-dihydro-2H-1,4-thiazin-3-yl)-4-fluorophenyl)-5-methoxy-2-pyrazinecarboxamide], for which the IC50 in experiment [2] (Aβ40, 24 h incubation) was 0.0022 µM; at Cathepsin D (Cat D) it was more than 400 µM.

Take `COc1ccnc(Oc2ccc(F)c([C@]3(C)CS(=O)(=O)C(C)(C)C(N)=N3)c2)c1` [Example 287, (5R)-5-(2-fluoro-5-((4-methoxy-2-pyridinyl)oxy)phenyl)-2,2,5-trimethyl-5,6-dihydro-2H-1,4-thiazin-3-amine 1,1-dioxide]: the IC50 in experiment [1] (average IC50, enzyme assay) was found to be 0.1 µM; on Cathepsin D (Cat D) it was 204 µM.

Consider `CC1(C)C(N)=N[C@](C)(c2cc(Oc3ncccn3)ccc2F)CS1(=O)=O` [Example 288, (5R)-5-(2-fluoro-5-(2-pyrimidinyloxy)phenyl)-2,2,5-trimethyl-5,6-dihydro-2H-1,4-thiazin-3-amine 1,1-dioxide], for which the half-maximal inhibitory concentration (IC50) was found to be 0.125 µM in experiment [1] (average IC50, enzyme assay) and 222 µM on Cathepsin D (Cat D).

Regarding `C[C@@]1(c2cc(Br)ccc2F)CS(=O)(=O)C2(CC(O)C2)C(N)=N1` (stereo partly drawn) [Example 112, (R)-9-amino-7-(5-bromo-2-fluorophenyl)-2-hydroxy-7-methyl-5-thia-8-azaspiro[3.5]non-8-ene 5,5-dioxide], the IC50 in experiment [1] (average IC50, enzyme assay) was found to be 1.19 µM; at Cathepsin D (Cat D) it was 37.3 µM.

As to `C[C@@]1(c2cc(Br)ccc2F)CS(=O)(=O)C2(CCC2)C(N)=N1` [Example 113, (R)-9-amino-7-(5-bromo-2-fluorophenyl)-7-methyl-5-thia-8-azaspiro[3.5]non-8-ene 5,5-dioxide], the half-maximal inhibitory concentration (IC50) in experiment [1] (average IC50, enzyme assay) came to 4.05 µM; on Cathepsin D (Cat D), 30 µM.

For `CC1(C)C(N)=N[C@](C)(c2cc(Nc3ncnc4cc(Cl)cnc34)ccc2F)C(F)S1(=O)=O` (stereo partly drawn) [Example 228, N-(3-((3R)-5-amino-2-fluoro-3,6,6-trimethyl-1,1-dioxido-3,6-dihydro-2H-1,4-thiazin-3-yl)-4-fluorophenyl)-7-chloropyrido[3,2-d]pyrimidin-4-amine], the IC50 in experiment [1] (average IC50, enzyme assay) came out at 0.00328 µM; on Cathepsin D (Cat D), 58.9 µM.

As to `CC1(C)C(N)=N[C@](C)(c2cc(OCc3ccccc3)ccc2F)CS1(=O)=O` [Example 301, (5R)-5-(5-(benzyloxy)-2-fluorophenyl)-2,2,5-trimethyl-5,6-dihydro-2H-1,4-thiazin-3-amine 1,1-dioxide], the IC50 in experiment [2] (average IC50, HEK cell assay) was determined as 1.06 µM; at Cathepsin D (Cat D), 184 µM.

For the compound `COc1cnc2c(Oc3ccc(F)c([C@]4(C)CS(=O)(=O)C(C)(C)C(N)=N4)c3)nccc2c1` [Example 305, (5R)-5-(2-fluoro-5-((3-methoxy-1,7-naphthyridin-8-yl)oxy)phenyl)-2,2,5-trimethyl-5,6-dihydro-2H-1,4-thiazin-3-amine 1,1-dioxide], the IC50 in experiment [1] (average IC50, enzyme assay) was 2.07 µM; on Cathepsin D (Cat D) it was 680 µM.

Regarding `CC1(C)C(N)=N[C@](C)(c2cc(Nc3nccc4nc(C(F)(F)F)cnc34)ccc2F)C(F)S1(=O)=O` (stereo partly drawn) [Example 227, N-(3-((3R)-5-amino-2-fluoro-3,6,6-trimethyl-1,1-dioxido-3,6-dihydro-2H-1,4-thiazin-3-yl)-4-fluorophenyl)-2-(trifluoromethyl)pyrido[3,4-b]pyrazin-5-amine], the IC50 is 0.00659 µM in experiment [1] (average IC50, enzyme assay) and more than 44.4 µM on Cathepsin D (Cat D).

In the case of `CC1(C)C(N)=N[C@](C)(c2cc(NC(=O)c3nn(C(F)F)cc3Cl)ccc2F)CS1(=O)=O` [Example 106, (R)—N-(3-(5-amino-3,6,6-trimethyl-1,1-dioxido-3,6-dihydro-2H-1,4-thiazin-3-yl)-4-fluorophenyl)-4-chloro-1-(difluoromethyl)-1H-pyrazole-3-carboxamide], the concentration for half-maximal inhibition (IC50) in experiment [1] was determined as 0.00174 µM; on Cathepsin D (Cat D), 112 µM.

With `CC1(C)C(N)=N[C@](C)(c2cc(NCc3nn(C(F)F)cc3Cl)ccc2F)CS1(=O)=O` [Example 107, (R)-5-amino-3-(5-(((4-chloro-1-(difluoromethyl)-1H-pyrazol-3-yl)methyl)amino)-2-fluorophenyl)-3,6,6-trimethyl-3,6-dihydro-2H-1,4-thiazine 1,1-dioxide], the half-maximal inhibitory concentration (IC50) was 0.00227 µM in experiment [1] (average IC50, enzyme assay) and 81.1 µM on Cathepsin D (Cat D).
